Reference: patent US20250268897A1, “USE OF HETEROCYCLIC COMPOUND IN TREATING DISEASES RELATED TO KINASE DRUG-RESISTANT MUTATION AND METHOD THEREFOR” (Sichuan Kelun-Biotech Biopharmaceutical Co., Ltd., priority 2021, published 2025)

Key:
[1] = test system: Ba/F3 KIF5B-RET^G810S cells; assay: Inhibition of cell proliferation, Cell Titer Glo, Ba/F3 KIF5B-RET^G810S; format: cell-based
Procedure: (§1) Experimental purpose: To evaluate the inhibitory effect of the compound on proliferation of three BaF3 cell lines (Ba/F3 KIF5B-RET^G810R, Ba/F3 KIF5B-RET^G810S, Ba/F3 KIF5B-RET^G810C) in vitro.
(§2) Experimental method: Three Ba/F3 cell lines (Ba/F3 KIF5B-RET^G810R, Ba/F3 KIF5B-RET^G810S Ba/F3 KIF5B-RET^G810C) in logarithmic phase were respectively collected and inoculated into 96-well plates, with 2000 cells/95 μl/well. […] In addition, negative control wells (without the test compound) and blank control wells (without cells) were set.
(§3) the inhibition rate % was fitted using the four-parameter equation “log(agonist) vs response-variable slope (four parameters)” in GraphPad Prism 6.0, and the IC50 was obtained by calculation.

[2] = test system: Ba/F3 KIF5B-RET^G810R subcutaneous tumour; assay: In vivo efficacy in BALB/c Nude mouse model with Ba/F3 KIF5B-RET^G810R subcutaneous tumour; conditions: 30 mg/kg, PO, BID × 12
RET-G810R enzyme = RET-G810R enzyme (Homo sapiens (Human), UniProt P07949, G810R); assay: RET inhibition experiment, HTRF KinEASE-TK kit, RET-G810R; format: biochemical
[3] = test system: Ba/F3 KIF5B-RET^G810C cells; assay: Inhibition of cell proliferation, Cell Titer Glo, Ba/F3 KIF5B-RET^G810C; format: cell-based
Procedure: as §1, §2, §3

[4] = test system: Ba/F3 KIF5B-RET^G810R cells; assay: Inhibition of cell proliferation, Cell Titer Glo, Ba/F3 KIF5B-RET^G810R; format: cell-based
Procedure: as §1, §2, §3

RET-G810C enzyme = RET-G810C enzyme (Homo sapiens (Human), UniProt P07949, G810C); assay: RET inhibition experiment, HTRF KinEASE-TK kit, RET-G810C; format: biochemical
RET-G810S enzyme = RET-G810S enzyme (Homo sapiens (Human), UniProt P07949, G810S); assay: RET inhibition experiment, HTRF KinEASE-TK kit, RET-G810S; format: biochemical
[5] = Mus musculus, BaF3, 72 h, 3 days culture, Cell Titer Glo

Sequence of RET-G810S enzyme (P07949 29-1114 G810S): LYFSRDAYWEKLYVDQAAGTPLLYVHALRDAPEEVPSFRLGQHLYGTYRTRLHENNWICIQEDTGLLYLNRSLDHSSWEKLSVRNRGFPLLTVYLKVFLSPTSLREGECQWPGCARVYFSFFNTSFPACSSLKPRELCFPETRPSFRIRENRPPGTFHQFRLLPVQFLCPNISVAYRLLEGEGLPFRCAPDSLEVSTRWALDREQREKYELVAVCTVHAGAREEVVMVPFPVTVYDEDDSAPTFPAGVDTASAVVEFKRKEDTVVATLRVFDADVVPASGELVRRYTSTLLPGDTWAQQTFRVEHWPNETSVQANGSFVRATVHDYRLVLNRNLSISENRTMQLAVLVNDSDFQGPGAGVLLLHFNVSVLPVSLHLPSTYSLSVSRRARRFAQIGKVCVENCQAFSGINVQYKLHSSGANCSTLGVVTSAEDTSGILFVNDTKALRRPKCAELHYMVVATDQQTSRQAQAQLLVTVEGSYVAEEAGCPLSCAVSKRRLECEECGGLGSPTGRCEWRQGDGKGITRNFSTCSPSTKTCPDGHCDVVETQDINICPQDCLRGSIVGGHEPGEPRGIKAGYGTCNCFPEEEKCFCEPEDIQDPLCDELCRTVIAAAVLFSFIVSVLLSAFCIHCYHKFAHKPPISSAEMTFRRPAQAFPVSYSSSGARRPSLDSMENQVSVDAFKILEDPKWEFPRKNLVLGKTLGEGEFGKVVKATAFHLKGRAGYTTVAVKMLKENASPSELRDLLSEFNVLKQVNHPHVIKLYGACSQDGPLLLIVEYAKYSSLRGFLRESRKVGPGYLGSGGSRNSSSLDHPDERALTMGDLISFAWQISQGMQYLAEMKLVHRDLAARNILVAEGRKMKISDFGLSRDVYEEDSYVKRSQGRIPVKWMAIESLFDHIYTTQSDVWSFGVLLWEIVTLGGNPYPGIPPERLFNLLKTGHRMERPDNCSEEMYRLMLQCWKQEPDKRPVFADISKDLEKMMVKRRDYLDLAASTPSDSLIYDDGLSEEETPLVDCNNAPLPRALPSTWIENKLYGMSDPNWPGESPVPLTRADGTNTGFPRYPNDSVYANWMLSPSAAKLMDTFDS
Sequence of RET-G810C enzyme (P07949 29-1114 G810C): as the sequence (P07949 29-1114 G810S) above, with S782C counted along it
Sequence of RET-G810R enzyme (P07949 29-1114 G810R): as the sequence (P07949 29-1114 G810S) above, with S782R counted along it

Cc1cc(Nc2cc(C)[nH]n2)nc(-c2ccc(N3CC4CC(C3)N4Cc3ccc(-n4cc(F)cn4)nc3)nc2)n1.O=C(O)/C=C/C(=O)O [Compound 1-A, Fumarate of 2-(6-(6-((6-(4-fluoro-1H-pyrazol-1-yl)pyridin-3-yl)methyl)-3,6-diazabicyclo [3.1.1]heptan-3-yl)pyridin-3-yl)-6-methyl-N-(5-methyl-1H-pyrazol-3-yl) pyrimidin-4-amine]
IC50 [1, 5]: 20.2 ± 0.35 nM | Inhibiting the proliferation of Ba/F3 KIF5B-RET^G810S cells (in words) ([1]; comparison with controls): superior to BLU-667 and Loxo-292 | TGI (%) tumour growth inhibition rate [2]: 72.37% | VP12 (mm^3, mean ± SEM): tumour volume on Day 12 of administration [2]: 278.53 ± 51.13 mm^3 | VP-1 (mm^3, mean ± SEM): tumour volume one day before administration ([2]; baseline of the group): 101.08 ± 4.75 mm^3 | IC50 (RET-G810R enzyme; Table 7, value ± spread): 19.6 ± 0.67 nM | Inhibition on RET-G810R enzyme (in words) (RET-G810R enzyme; summary of tables): remarkably inhibited | IC50 [3, 5]: 65.3 ± 1 nM | Inhibiting the proliferation of Ba/F3 KIF5B-RET^G810C cells (in words) ([3]; comparison with controls): superior to BLU-667 and Loxo-292 | IC50 [4, 5]: 26.3 ± 5.76 nM | Inhibiting the proliferation of Ba/F3 KIF5B-RET^G810R cells (in words) ([4]; comparison with controls): superior to BLU-667 and Loxo-292 | IC50 (RET-G810C enzyme; Table 7, value ± spread): 53.2 ± 10.7 nM | Inhibition on RET-G810C enzyme (in words) (RET-G810C enzyme; summary of tables): remarkably inhibited | IC50 (RET-G810S enzyme; Table 7, value ± spread): 2.69 ± 0.56 nM | Inhibition on RET-G810S enzyme (in words) (RET-G810S enzyme; summary of tables): remarkably inhibited
